Reference: US20240226115A1, “AXL INHIBITOR COMPOUNDS” (ARCUS BIOSCIENCES, INC., priority 2021, published 2024)
pIC50: −log10 of the molar value.

Legend:
recombinant human MER = target: T1, recombinant human MER (Homo sapiens, UniProt Q12866); test: HTRF KinEASE-TK biochemical potency, MER; conditions: 1 nM MER, 700 μM ATP
T1 construct: purchased Invitrogen
T1 sequence (Q12866 21-999): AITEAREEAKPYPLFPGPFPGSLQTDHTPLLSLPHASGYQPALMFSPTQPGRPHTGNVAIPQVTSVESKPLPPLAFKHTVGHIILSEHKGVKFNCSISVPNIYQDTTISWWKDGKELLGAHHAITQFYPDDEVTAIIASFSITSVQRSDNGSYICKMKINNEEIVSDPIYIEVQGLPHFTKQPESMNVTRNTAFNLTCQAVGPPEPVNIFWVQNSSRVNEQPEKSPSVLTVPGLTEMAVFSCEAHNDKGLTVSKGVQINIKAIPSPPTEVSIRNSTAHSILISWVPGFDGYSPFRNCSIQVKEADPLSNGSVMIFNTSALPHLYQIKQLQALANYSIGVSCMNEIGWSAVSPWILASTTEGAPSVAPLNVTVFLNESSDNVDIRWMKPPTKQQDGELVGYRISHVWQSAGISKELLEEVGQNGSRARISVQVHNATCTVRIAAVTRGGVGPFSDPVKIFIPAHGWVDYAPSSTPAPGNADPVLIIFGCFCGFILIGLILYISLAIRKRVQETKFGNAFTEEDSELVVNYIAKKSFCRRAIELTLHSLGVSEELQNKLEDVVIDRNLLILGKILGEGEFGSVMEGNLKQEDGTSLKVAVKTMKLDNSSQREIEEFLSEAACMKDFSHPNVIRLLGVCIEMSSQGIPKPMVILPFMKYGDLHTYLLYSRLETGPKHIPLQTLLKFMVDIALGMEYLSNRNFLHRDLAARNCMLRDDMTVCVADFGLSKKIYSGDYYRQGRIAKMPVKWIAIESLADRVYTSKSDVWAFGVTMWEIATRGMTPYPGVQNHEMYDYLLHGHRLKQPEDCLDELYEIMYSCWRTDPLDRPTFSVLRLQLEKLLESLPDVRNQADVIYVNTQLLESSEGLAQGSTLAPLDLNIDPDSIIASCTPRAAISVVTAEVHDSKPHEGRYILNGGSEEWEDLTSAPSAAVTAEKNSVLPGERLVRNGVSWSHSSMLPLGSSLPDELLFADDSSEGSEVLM
How it was run: (§1)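 Enzyme preincubated with compound 1 h at RT; final 5 nM AXL or 1 nM TYRO3/MER, 800 nM TK substrate-biotin, 700 μM ATP, HEPES pH 7.4, MgCl2, 1% DMSO, 2 h at RT. HTRF 665/620 ratio read after streptavidin-XL665/cryptate antibody detection; percent activity relative to DMSO and pre-stopped controls.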

Axl = target: T2, Axl (Homo sapiens, UniProt P30530); test: HTRF KinEASE-TK biochemical potency, AXL; set-up: purchased Invitrogen; conditions: 5 nM AXL, 700 μM ATP
T2 sequence (P30530 26-894): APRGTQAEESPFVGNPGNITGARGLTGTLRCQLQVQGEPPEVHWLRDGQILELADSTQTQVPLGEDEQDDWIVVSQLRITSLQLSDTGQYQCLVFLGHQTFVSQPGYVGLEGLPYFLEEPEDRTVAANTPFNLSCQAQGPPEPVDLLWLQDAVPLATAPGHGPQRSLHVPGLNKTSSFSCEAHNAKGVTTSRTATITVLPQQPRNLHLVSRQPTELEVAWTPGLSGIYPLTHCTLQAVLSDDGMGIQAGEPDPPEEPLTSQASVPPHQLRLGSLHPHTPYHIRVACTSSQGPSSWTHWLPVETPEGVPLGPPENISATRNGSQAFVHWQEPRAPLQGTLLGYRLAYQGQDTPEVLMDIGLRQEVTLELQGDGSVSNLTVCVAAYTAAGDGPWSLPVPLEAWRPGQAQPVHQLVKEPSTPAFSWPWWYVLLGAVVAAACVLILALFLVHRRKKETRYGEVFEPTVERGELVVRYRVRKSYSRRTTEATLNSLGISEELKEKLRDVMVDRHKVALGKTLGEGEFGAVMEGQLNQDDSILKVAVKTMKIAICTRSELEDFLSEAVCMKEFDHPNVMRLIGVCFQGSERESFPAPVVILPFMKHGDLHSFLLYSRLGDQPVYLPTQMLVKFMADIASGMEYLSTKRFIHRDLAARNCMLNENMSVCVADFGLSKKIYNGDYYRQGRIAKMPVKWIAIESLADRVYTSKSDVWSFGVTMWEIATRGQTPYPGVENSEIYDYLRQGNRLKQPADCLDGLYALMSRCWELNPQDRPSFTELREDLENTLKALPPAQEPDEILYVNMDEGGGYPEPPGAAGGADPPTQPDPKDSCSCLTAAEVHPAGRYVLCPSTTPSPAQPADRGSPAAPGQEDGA
How it was run: as §1

pIC50 (recombinant human MER) | pIC50 (Axl) | Compound
6.00 to 7.00 | > 7.00 | O=C1NCCOc2cc(-c3n[nH]c4ncc(-c5ccc6c(c5)CCN(C5COC5)C6)cc34)ccc21 [Example 12, 8-(5-(2-(Oxetan-3-yl)-1,2,3,4-tetrahydroisoquinolin-6-yl)-1H-pyrazolo[3,4-b]pyridin-3-yl)-3,4-dihydrobenzo[f][1,4]oxazepin-5(2H)-one]
6.00 to 7.00 | > 7.00 | O=C1NCCOc2cc(-c3n[nH]c4ncc(-c5ccc6c(c5)CC[C@H](N5CCCC5)CC6)cc34)ccc21 (single isomer, unassigned) [Example 56]
> 7.00 | > 7.00 | C[C@@H]1CCCN1C1CCc2ccc(-c3cnc4[nH]nc(-c5ccc6c(c5)S(=O)(=O)NC6(C)C)c4c3)cc2CC1 (stereo partly drawn) [Example 33, 3,3-Dimethyl-6-(5-{7-[(2R)-2-methylpyrrolidin-1-yl]-6,7,8,9-tetrahydro-5H-benzo[7]annulen-2-yl}-1H-pyrazolo[3,4-b]pyridin-3-yl)-2,3-dihydro-1λ^6,2-benzothiazole-1,1-dione]
6.00 to 7.00 | > 7.00 | Cc1cc2c(cc1-c1n[nH]c3ncc(-c4ccc5c(c4)CCC(N4CCC[C@H]4C)CC5)cc13)OCCNC2=O (stereo partly drawn) [Example 40, 7-Methyl-8-(5-{7-[(2R)-2-methylpyrrolidin-1-yl]-6,7,8,9-tetrahydro-5H-benzo[7]annulen-2-yl}-1H-pyrazolo[3,4-b]pyridin-3-yl)-2,3,4,5-tetrahydro-1,4-benzoxazepin-5-one]
